Measurements as given in patent US9169209B2, “Compounds and compositions for the inhibition of NAMPT” (FORMA TM, LLC, priority 2011, dated 2015).
Like-named read-outs stand apart in the source and are kept apart here.

Key:
NAMPT = NAMPT (Homo sapiens (Human), UniProt P43490); test: Biochemical Inhibition Assay (NAMPT enzymatic reaction, NMN quantified by mass spectrometry); details: recombinant His-tagged NAMPT, 33 nM; 1 μM NAM; read-out: Biochem IC50
Protocol: Recombinant His-tagged NAMPT was produced in E. coli cells, purified over a Ni column, and further purified over a size-exclusion column by XTAL Biostructures.
The NAMPT enzymatic reactions were carried out in Buffer A (50 mM Hepes pH 7.5, 50 mM NaCl, 5 mM MgCl2, and 1 mM THP) in 96-well V-bottom plates. The compound titrations were performed in a separate dilution plate by serially diluting the compounds in DMSO to make a 100× stock. […] The compound and enzyme mix was incubated for 15 minutes at room temperature, then 10 μL of 10× substrate and co-factors in Buffer A were added to the test well to make a final concentration of 1 μM NAM, 100 μM 5-Phospho-D-ribose 1-diphosphate (PRPP), and 2.5 mM Adenosine 5′-triphosphate (ATP). The reaction was allowed to proceed for 30 minutes at room temperature, then was quenched with the addition of 11 μL of a solution of formic acid and L-Cystathionine to make a final concentration of 1% formic acid and 10 μM L-Cystathionine. Background and signal strength was determined by addition (or non-addition) of a serial dilution of NMN to a pre-quenched enzyme and cofactor mix.
A mass spectrometry-based assay was used to measure the NAMPT reaction product (NMN) and the internal control (L-Cystathionine). NMN and L-Cystathionine were detected using the services of Biocius Lifesciences with the RapidFire system. In short, the NMN and L-Cystathionine are bound to a graphitic carbon cartridge in 0.1% formic acid, eluted in 30% acetonitrile buffer, and injected into a Sciex 4000 mass spectrometer. The components of the sample were ionized with electrospray ionization and the positive ions were detected. […] The fragments are quantified and the analyzed by the following method.
First the NMN signal is normalized to the L-Cystathionine signal by dividing the NMN signal by the L-Cystathionine signal for each well. The signal from the background wells are averaged and subtracted from the test plates.
Wherein x denotes the average signal of the compound treated wells and y denotes the average signal of the DMSO treated wells.
IC50s are Determined Using Excel and this Formula.
Wherein X denotes the compound concentration 1, Y denotes the compound concentration 2, XX denotes the % inhibition at compound concentration 1 (X), and YY denotes the % inhibition at compound concentration 2 (Y).

A2780 cells = test: In-Vitro Cell Proliferation Assay (SRB, 72 hours); assay type: cell-based; details: A2780 cells, 72 hours, sulforhodamine B, read-out: A2780 IC50
Protocol: After overnight incubation at 37° C. and 5% CO2, the compound titrations were performed in a separate dilution plate by serially diluting the compounds in DMSO to make a 1000× stock. The compounds were then further diluted to 10× final concentration in culture media, whereupon 20 μL of each dilution was added to the plated cells with controls (e.g. DMSO and blank) to make a final volume of 200 μL. The final DMSO concentration in each well was 0.1%. The plates were then incubated for 72 hours at 37° C. in a 5% CO2 incubator. The number of viable cells was then assessed using sulforhodamine B (SRB) assay. Cells were fixed at 4° C. for 1 hour with the addition of 50 μL 30% trichloroacetic acid (TCA) to make a final concentration of 6% TCA. The plates were washed four times with H2O and allowed to dry for at least 1 hour, whereupon 100 μL of a 4% SRB in 1% acetic acid solution was added to each well and incubated at room temperature for at least 30 minutes. The plates were then washed three times with 1% acetic acid, dried, and treated with 100 μL of 10 mM Tris-Base solution. The plates were then read in a microplate reader at an absorbance of 570 nm. Background was generated on a separate plate with media only.
First, the signals from the background plate are averaged and then the background was subtracted from the test plates.
wherein x denotes the average signal of the compound-treated cells and y denotes the average signal of the DMSO-treated cells.
wherein X denotes the compound concentration 1, Y denotes the compound concentration 2, XX denotes the % inhibition at compound concentration 1 (X), and YY denotes the % inhibition at compound concentration 2 (Y).

NAMPT, sequence (P43490 whole entry): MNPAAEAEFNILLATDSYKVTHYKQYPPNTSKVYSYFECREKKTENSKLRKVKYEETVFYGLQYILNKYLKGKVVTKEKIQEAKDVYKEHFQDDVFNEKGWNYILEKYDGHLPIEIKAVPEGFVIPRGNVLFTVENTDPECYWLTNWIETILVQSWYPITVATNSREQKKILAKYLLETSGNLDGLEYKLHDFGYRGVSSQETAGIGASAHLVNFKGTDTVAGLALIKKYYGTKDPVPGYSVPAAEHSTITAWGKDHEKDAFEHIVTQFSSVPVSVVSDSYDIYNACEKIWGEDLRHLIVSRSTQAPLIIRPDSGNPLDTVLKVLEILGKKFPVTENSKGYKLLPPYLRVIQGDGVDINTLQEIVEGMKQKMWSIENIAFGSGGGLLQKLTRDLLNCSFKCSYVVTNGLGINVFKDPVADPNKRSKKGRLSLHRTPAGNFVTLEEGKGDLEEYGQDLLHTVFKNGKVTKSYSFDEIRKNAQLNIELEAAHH

Structure (SMILES) | IC50 (NAMPT) | IC50 (A2780 cells; Homo sapiens, A2780, 72 h) | IC50 (A2780 cells)
O=C(/C=C/c1cccnc1)Nc1ccc(S(=O)(=O)c2cccc3ccccc23)cc1 [(2E)-N-[4-(naphthalene-1-sulfonyl)phenyl]-3-(pyridin-3-yl)prop-2-enamide] | 4.2 nM | 18.1 nM | 
O=C(/C=C/c1cccnc1)Nc1ccc(S(=O)(=O)c2cccc3c2Oc2ccccc2S3)cc1 [(2E)-N-[4-(phenoxathiine-4-sulfonyl)phenyl]-3-(pyridin-3-yl)prop-2-enamide] | 7.2 nM | 50.1 nM | 
O=C(/C=C/c1cccnc1)NCc1ccc(S(=O)(=O)N2CC3CCC(C2)O3)cc1 [(2E)-N-[(4-{8-oxa-3-azabicyclo[3.2.1]octane-3-sulfonyl}phenyl)methyl]-3-(pyridin-3-yl)prop-2-enamide] | 3 nM | 386 nM | 
CN(C)c1ncc(S(=O)(=O)c2ccc(NC(=O)/C=C/c3cccnc3)cc2)cn1 [(2E)-N-{4-[2-(dimethylamino)pyrimidine-5-sulfonyl]phenyl}-3-(pyridin-3-yl)prop-2-enamide] | 7.9 nM | 73.1 nM | 
O=C(/C=C/c1cccnc1)Nc1ccc(S(=O)(=O)N2CCC(N3CCOCC3)CC2)cc1 [(2E)-N-{4-[4-(morpholin-4-yl)piperidine-1-sulfonyl]phenyl}-3-(pyridin-3-yl)prop-2-enamide] | 10 nM | 210 nM | 
CN(C)c1ccc(S(=O)(=O)c2ccc(NC(=O)/C=C/c3cccnc3)cc2)cn1 [(2E)-N-{4-[6-(dimethylamino)pyridine-3-sulfonyl]phenyl}-3-(pyridin-3-yl)prop-2-enamide] | 5.1 nM | 78.1 nM | 
O=C(/C=C/c1cccnc1)Nc1ccc(S(=O)(=O)c2cc(Cl)ccc2Cl)cc1 [(2E)-N-{4-[(2,5-dichlorobenzene)sulfonyl]phenyl}-3-(pyridin-3-yl)prop-2-enamide] | 22.4 nM | 100 to 1000 nM | 
COc1ccc(C)cc1S(=O)(=O)c1ccc(NC(=O)/C=C/c2cccnc2)cc1 [(2E)-N-{4-[(2-methoxy-5-methylbenzene)sulfonyl]phenyl}-3-(pyridin-3-yl)prop-2-enamide] | 1.8 nM | 7.3 nM | 
COc1ccccc1S(=O)(=O)c1ccc(NC(=O)/C=C/c2cccnc2)cc1 [(2E)-N-{4-[(2-methoxybenzene)sulfonyl]phenyl}-3-(pyridin-3-yl)prop-2-enamide] | 7.7 nM | 24.1 nM | 
Cc1ccccc1S(=O)(=O)c1ccc(NC(=O)/C=C/c2cccnc2)cc1 [(2E)-N-{4-[(2-methylbenzene)sulfonyl]phenyl}-3-(pyridin-3-yl)prop-2-enamide] | 33.3 nM | 100 to 1000 nM | 
O=C(/C=C/c1cccnc1)Nc1ccc(S(=O)(=O)c2ccc(Cl)c(Cl)c2)cc1 [(2E)-N-{4-[(3,4-dichlorobenzene)sulfonyl]phenyl}-3-(pyridin-3-yl)prop-2-enamide] | 72.9 nM | 100 to 1000 nM | 
COc1ccc(S(=O)(=O)c2ccc(NC(=O)/C=C/c3cccnc3)cc2)cc1OC [(2E)-N-{4-[(3,4-dimethoxybenzene)sulfonyl]phenyl}-3-(pyridin-3-yl)prop-2-enamide] | 2.5 nM | 43.6 nM | 
O=C(/C=C/c1cccnc1)Nc1ccc(S(=O)(=O)c2cc(Cl)cc(Cl)c2)cc1 [(2E)-N-{4-[(3,5-dichlorobenzene)sulfonyl]phenyl}-3-(pyridin-] [(2E)-N-{4-[(3,5-dichlorobenzene)sulfonyl]phenyl}-3-(pyridin-3-yl)prop-2-enamide] | 50.5 nM |  | 186 nM
COc1cc(OC)cc(S(=O)(=O)c2ccc(NC(=O)/C=C/c3cccnc3)cc2)c1 [(2E)-N-{4-[(3,5-dimethoxybenzene)sulfonyl]phenyl}-3-(pyridin-3-yl)prop-2-enamide] | 20.3 nM | 44.3 nM | 
Cc1cc(C)cc(S(=O)(=O)c2ccc(NC(=O)/C=C/c3cccnc3)cc2)c1 [(2E)-N-{4-[(3,5-dimethylbenzene)sulfonyl]phenyl}-3-(pyridin-3-yl)prop-2-enamide] | 17.1 nM | 95.4 nM | 
